Reference: patent publication US9562044B2, “2-acylaminothiazole derivative or salt thereof” (ASTELLAS PHARMA INC., priority 2013, dated 2017)

Legend:
human c-Mpl receptor [1] = biological target: T1, human c-Mpl receptor (Homo sapiens, UniProt P40238); settings: positive control; as disclosed in Patent Document 1; cited from earlier work
T1 construct: expressed in transfected cells
T1 sequence (P40238 26-635): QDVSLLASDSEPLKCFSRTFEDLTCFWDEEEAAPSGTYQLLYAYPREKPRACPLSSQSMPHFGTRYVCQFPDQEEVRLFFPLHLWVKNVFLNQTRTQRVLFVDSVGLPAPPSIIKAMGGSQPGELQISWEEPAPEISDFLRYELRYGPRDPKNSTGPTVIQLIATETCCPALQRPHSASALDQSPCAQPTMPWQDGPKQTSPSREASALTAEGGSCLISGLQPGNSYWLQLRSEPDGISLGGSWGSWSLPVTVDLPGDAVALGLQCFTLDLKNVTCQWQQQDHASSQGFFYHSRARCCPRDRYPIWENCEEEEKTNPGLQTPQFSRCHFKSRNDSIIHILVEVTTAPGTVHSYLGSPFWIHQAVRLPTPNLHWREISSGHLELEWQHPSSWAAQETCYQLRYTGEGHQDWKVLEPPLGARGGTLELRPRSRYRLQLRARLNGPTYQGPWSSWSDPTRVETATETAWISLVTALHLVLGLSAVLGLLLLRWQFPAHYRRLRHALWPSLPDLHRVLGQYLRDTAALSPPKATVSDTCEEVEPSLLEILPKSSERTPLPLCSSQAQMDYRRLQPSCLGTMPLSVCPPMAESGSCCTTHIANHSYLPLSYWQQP

human c-Mpl receptor [2] = biological target: T1, human c-Mpl receptor; assay: Human c-Mpl-introduced Ba/F3 cell proliferative activity; assay type: cell-based; settings: concentration showing 30% proliferation; 100% = positive control at 1 μM
Description: Evaluation of Human c-Mpl-Introduced Ba/F3 Cell Proliferative Activity
The human c-Mpl-introduced Ba/F3 cell proliferative activity was measured by the following method.
As a positive control, 1-(5-{[4-(4-chloro-2-thienyl)-5-{[(2R)-2-methylpyrrolidin-1-yl]methyl}-1,3-thiazol-2-yl]carbamoyl}-3-fluoropyridin-2-yl)piperidine-4-carboxylic acid hydrochloride, which is disclosed as Example 315 in Patent Document 1 and represented by the formula A1, was used. It is known that the compound has a good human c-Mpl-introduced Ba/F3 cell proliferative activity as disclosed in Table 1 of Patent Document 1.
a) Construction of Human c-Mpl Receptor Expression Vector
A human c-mpl receptor gene (GenBank Accession No. M90102.1) was introduced into an expression vector pEF-BOS (Nucleic Acids Res. 18, 5322, 1990).
b) Construction of Cell Stably Expressing Human c-Mpl Receptor
A human c-Mpl receptor expression vector was introduced into a Ba/F3 cell (RIKEN BRC: RCB0805). For the introduction, an electroporation method was used. pEF-BOS-c-mpl (10 μg), pSV2bsr (1 μg, Kaken Pharmaceutical Co., Ltd.) and 1×10^7 Ba/F3 cells were put into a cuvette having a gap width of 0.4 cm, and electroporated under the conditions of 1.5 kV (25 μF) by a Gene Pulser (registered trademark) (BioRad). The cells were cultured in an RPMI-1640 culture medium containing 0.5% WEHI conditioned media (BD Biosciences) and 10% fetal bovine serum for 3 days, and then cultured in an RPMI-1640 culture medium, to which 10 μg/mL blasticidin had been further added, for 30 days to acquire a drug-resistant clone.
c) Measurement of Cell Proliferative Activity
The cells obtained in b) above was cultured in an RPMI-1640 culture medium containing 0.5% WEHI conditioned media, 10% fetal bovine serum, and used. On the day before the experiment, test substances (final concentration of 100 nM to 10 μM) which had been dissolved in a culture medium for assay (RPMI-1640 culture medium containing 10% fetal bovine serum) were added to a 384-well plate (Lot No. 781185, Greiner Bio-One). The cells in the culture medium that had been replaced with a culture medium for assay were dispensed into a 384-well plate, to which the test substances had been added in advance, to 1×10^4 cells/well, and cultured at 37° C. and 5% CO2 overnight. On the experiment day, a solution of a Cell Counting Kit (Dojindo Laboratories) was added to each well of the 384-well plate and cultured at 37° C. and 5% CO2 for about 5 hours. Thereafter, the absorbance (absorption wavelength of 450 nm) of each well was measured using Safire^2™ (TECAN) and used as the index of the number of cells. Further, as a negative control, a well in which the test substance had been not added was prepared.
The absorbance of the well without the test substance was set to 0%, and the absorbance in the case where the positive control was added at a final concentration of 1 μM was set to 100%. From the absorbance in the case where the test substance had been added, a cell proliferation rate (%) was calculated. From the obtained results, the test substance concentration showing 30% proliferation was calculated as an EC30 value by a logistic regression method.

isolated rat bladder = assay: Transmural electrical field stimulation-induced contraction of isolated rat bladder; settings: AUC of contractile response, value before treatment = 100%, SD female rat bladder strip, read-out: Enhancement rate of isolated bladder contraction (% of pre)
Description: Effects on Transmural Electrical Field Stimulation-Induced Contraction of Isolated Rat Bladder
As an effect on the nerve stimulation-dependent bladder contraction in vitro, the effect of the Example compound of the present invention in the transmural electrical field stimulation-induced contraction of isolated rat bladder was measured by the following method. That is, from the bladder isolated from a Spraque-Dawley (SD) female rat (Japan SLC, Inc.), a longitudinal bladder strip having a width of about 2 mm and a length of about 10 mm was prepared. The prepared bladder strip was suspended in an organ bath filled with 10 mL of a Krebs-Henseleit solution. The Krebs-Henseleit solution was bubbled with 95% O2 and 5% CO2, and kept at 37° C. After stabilization at an initial tension of 1 g, contraction was induced twice with 60 mM KCl. The strip was washed with the Krebs-Henseleit solution and stabilized, and then contraction was induced with transmural electrical field stimulation at 20 V (stimulation frequency of 8 Hz, pulse width of 0.3 msec, and stimulation time of 10 seconds) by an electrical stimulation device (Nihon Kohden Corporation). At an interval of 2 minutes, transmural electrical field stimulation was repeated and the voltage was adjusted to make the contractile amplitude about 50% of the contractile response by 20 V. After stabilization of the contraction by the transmural electrical field stimulation, 10 μL of the test substance (final concentrations of 3 μM, 10 μM, and 30 μM), which had been dissolved in 100% dimethylsulfoxide in advance was added. The test substance was cumulatively administered at the next concentration after the contractile response at a lower concentration had been stabilized. The responses were put into a personal computer through PowerLab (registered trademark) (AD Instruments), and analyzed with LabChart (registered trademark) (AD Instruments). The area under the response of each contractile response (area under curve, AUC) was calculated and the value before the treatment with the test substance was set to 100%. Based on this, the enhancement rate of the isolated bladder contraction (% of pre) after the treatment with the test substance was calculated.
The enhancement rates of the isolated bladder contraction due to several 10 μM Example compounds which are the compounds of the formula (I) are shown in Table 2.

Compound | melting point [°C] | further results
CC[C@@H]1CCCN1Cc1sc(NC(=O)c2cnc(N3CCC(C(=O)O)CC3)cn2)nc1-c1ccc(OC)c(C(F)(F)F)c1 [Example 8, 1-{5-[(5-{[(2R)-2-ethylpyrrolidin-1-yl]methyl}-4-[4-methoxy-3-(trifluoromethyl)phenyl]-1,3-thiazol-2-yl)carbamoyl]pyrazin-2-yl}piperidine-4-carboxylic acid] | 194 | 
C[C@@H]1CCCN1Cc1sc(NC(=O)c2cnc(N3CCC(C(=O)O)CC3)c(F)c2)nc1-c1cc(Cl)cs1.Cl [Example A1, 1-(5-{[4-(4-chloro-2-thienyl)-5-{[(2R)-2-methylpyrrolidin-1-yl]methyl}-1,3-thiazol-2-yl]carbamoyl}-3-fluoropyridin-2-yl)piperidine-4-carboxylic acid hydrochloride] |  | Human c-Mpl-introduced Ba/F3 cell proliferative activity (Table 1 of Patent Document 1) (human c-Mpl receptor [1]): good
C[C@@H]1CCCN1Cc1sc(NC(=O)c2cnc(N3CCC(C(=O)O)CC3)cn2)nc1-c1cc(Cl)cs1 [Example 206, 1-(5-{[4-(4-chloro-2-thienyl)-5-{[(2R)-2-methylpyrrolidin-1-yl]methyl}-1,3-thiazol-2-yl]carbamoyl}pyrazin-2-yl)piperidine-4-carboxylic acid] | 201 | 
COc1cc(-c2nc(NC(=O)c3cnc(N4CCC(C(=O)O)CC4)cn3)sc2CN2CCCC[C@H]2C)cc(C(F)(F)F)c1 [Example 207, 1-{5-[(4-[3-methoxy-5-(trifluoromethyl)phenyl]-5-{[(2R)-2-methylpiperidin-1-yl]methyl}-1,3-thiazol-2-yl)carbamoyl]pyrazin-2-yl}piperidine-4-carboxylic acid] | 136 | 
COc1c(Cl)cc(-c2nc(NC(=O)c3cnc(N4CCC(C(=O)O)CC4)cn3)sc2CN2CCC[C@H]2C)cc1Cl [Example 92] |  | Test Example 2 EC30 (human c-Mpl receptor [2]): >10 µM; activity at 10 µM (isolated rat bladder): 132%
